Experimental data taken from patent EP1208096B1, “SUBSTITUTED PYRIDAZINES AND FUSED PYRIDAZINES WITH ANGIOGENESIS INHIBITING ACTIVITY” (Bayer Corporation, priority 1999, dated 2001).

Biological target: T1, cytosolic kinase domain of KDR kinase (Homo sapiens, UniProt P35968)
T1 construct: The cytosolic kinase domain of KDR kinase was expressed as a 6His fusion protein in Sf9 insect cells; 6His; made in house; host or cells: Sf9 insect cells
Assay: KDR Assay (ELISA, phosphorylation of poly(Glu4;Tyr1))
Type: biochemical
Conditions: 3.3 µM ATP, 60 minutes at room temperature, 30 ng KDR kinase domain
Experimental: The cytosolic kinase domain of KDR kinase was expressed as a 6His fusion protein in Sf9 insect cells. The KDR kinase domain fusion protein was purified over a Ni^++ chelating column. Ninety-six well ELISA plates were coated with 5 µg poly(Glu4;Tyr1) (Sigma Chemical Co., St Louis, MO) in 100 µl HEPES buffer (20 mM HEPES, pH 7.5, 150 mM NaCl, 0.02% Thimerosal) at 4° overnight. Before use, the plate was washed with HEPES, NaCl buffer and the plates were blocked with 1% BSA, 0.1% Tween 20 in HEPES, NaCl buffer.
Test compounds were serially diluted in 100% DMSO from 4 mM to 0.12 µM in half-log dilutions. These dilutions were further diluted twenty fold in H2O to obtain compound solutions in 5% DMSO. Following loading of the assay plate with 85 µl of assay buffer (20 mM HEPES, pH 7.5, 100 mM KCl, 10 mM MgCl2, 3 mM MnCl2, 0.05% glycerol, 0.005% Triton X-100, 1 mM -mercaptoethanol, with or without 3.3 µM ATP), 5 µl of the diluted compounds were added to a final assay volume of 100 µl. Final concentrations were between 10 µM, and 0.3 nM in 0.25% DMSO. The assay was initiated by the addition of 10µl (30 ng) of KDR kinase domain.
The assay was incubated with test compound or vehicle alone with gentle agitation at room temperature for 60 minutes. The wells were washed and phosphotyrosines (PY) were probed with an anti-phosphotyrosine (PY), mAb clone 4G10 (Upstate Biotechnology, Lake Placid, NY). PY/anti-PY complexes were detected with an anti-mouse IgG/HRP conjugate (Amersham International plc, Buckinghamshire, England). Phosphotyrosine was quantitated by incubating with 100 µl 3, 3', 5, 5' tetramethylbenzidine solution (Kirkegaard and Perry, TMB Microwell 1 Component peroxidase substrate). Color development was arrested by the addition of 100 µl 1% HCl-based stop solution (Kirkegaard and Perry, TMB I Component Stop Solution).
Optical densities were determined spectrophotometrically at 450 nm in a 96-well plate reader, SpectraMax 250 (Molecular Devices). Background (no ATP in assay) OD values were subtracted from all ODs and the percent inhibition was calculated according to the equation: % Inhibition =((OD(vehicle control) - OD(with compound)) X 100)/(OD(vehicle control) - OD(no ATP added)) [formula]
The IC50 values were determined with a least squares analysis program using compound concentration versus percent inhibition. Compounds that have IC50 < 100 nM in this assay include those of Examples 1, 2, 4, 5, 6, 7, 10, 11, 12, 13, 14, 15, 16 and 23. Compounds that have IC50 values between 100 nM and 1,000 nM include those of examples 8, 9 and 22. Those that have measured IC50 values > 1,000 nM include those of examples 3, 17, 18 and 21.

T1 sequence (P35968 834-1162 limits assumed): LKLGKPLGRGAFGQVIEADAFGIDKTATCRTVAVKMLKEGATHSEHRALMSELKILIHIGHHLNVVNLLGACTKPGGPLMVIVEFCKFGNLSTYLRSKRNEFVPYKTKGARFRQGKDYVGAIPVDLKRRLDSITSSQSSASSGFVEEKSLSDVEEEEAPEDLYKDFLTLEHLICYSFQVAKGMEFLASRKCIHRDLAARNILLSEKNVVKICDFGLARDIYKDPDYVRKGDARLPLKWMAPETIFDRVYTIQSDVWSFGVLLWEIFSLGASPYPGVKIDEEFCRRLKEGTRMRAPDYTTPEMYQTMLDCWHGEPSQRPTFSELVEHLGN

IC50: < 100 nM
SMILES: CNC(=O)c1cc(Cc2nnc(Nc3ccc(Cl)cc3)c3ccccc23)ccn1 [Example 1, 4-[4-(4-Chlorophenylamino)phthalazin-1-ylmethyl]pyridin-2-yl carboxylic acid methylamide]
